Inhibition and IC50 data for 11 compounds are collected here from patent US20240343710A1, “HETEROCYCLIC COMPOUNDS AND METHODS OF USE THEREOF” (1cBio, Inc., priority 2023, published 2024).

One assay concerns the target recombinant human PARP2 (Homo sapiens, UniProt Q9UGN5). Put plainly: PARP2 fluorescence polarization binding assay. Particulars: read-out: PARP2 % inh at 10 μM.
Assay [1] deals with DLD-1 wild-type colorectal adenocarcinoma cells. As to the kind of experiment: Cell viability assay (Cell Titer-Glo, 7 days), DLD-1 wild-type. Type of assay: cell-based. To be noted: Homo sapiens, 168 h, DLD-1 wild-type cells, read-out: DLD-1 wild-type % inh at 10 μM. From the text:
(§1) In some embodiments, the biological assay measures the effects that compounds of the present disclosure may have on the viability of cells, e.g., the viability of cancer cells. In some embodiments, DLD-1 wild-type and DLD-1 BRCA2(−/−) colorectal adenocarcinoma cells, an isogenic pair of cell lines differing in the presence and absence, respectively, of both BRCA2 alleles, are used to measure the effect of the disclosed compounds on the viability of cancer cells. In some embodiments, the cells are harvested during the logarithmic growth period, counted, and seeded at a specified count in the wells of a 96- or 384-well cell culture plate. In some embodiments, after seeding, the cells are incubated, e.g., at 37° C., 5% CO2 overnight. In some embodiments, the cells are treated with compounds, e.g., with serially diluted test compounds at 8-11 concentrations within a desired concentration range, e.g., from 1 nM-10 μM, for the generation of dose-response curves. In some embodiments, the plate is further incubated, e.g., for another 3-7 days in a humidified incubator at 37° C. and 5% CO2. In some embodiments, cell viability is assessed by luminescence measurement after addition of Cell Titer-Glo reagent (Promega, Madison, Wis.) according to the manufacturer's instructions. In some embodiments, cell viability IC50 values are calculated using XLFit, equation 201: y=A+((B−A)/(1+((x/C)^D))), where A=bottom, B=top, C=IC50, and D=slope. In some embodiments, the effects of the test compounds on the viability of other cell lines such as MDA-MB-436, MDA-MB-231, SUM149PT, HCC1395, and UWB1.289 are determined in an analogous method.
(§2) Compounds of the present disclosure were tested for their effects on the viability of cancer cells. DLD-1 wild-type and DLD-1 BRCA2(−/−) colorectal adenocarcinoma cells, an isogenic pair of cell lines differing in the presence and absence, respectively, of both BRCA2 alleles, were used. The cells were harvested during the logarithmic growth period, counted, and seeded at 50 cells/well for DLD-1 wild-type and 200 cells/well for DLD-1 BRCA2(−/−) in a 384-well cell culture plate. After seeding, cells were incubated at 37° C., 5% CO2 overnight. Cells were treated with serially diluted test compounds at 10 concentrations (e.g., from 1.5 nM-30 μM) for generation of dose response curves, or at a single concentration. The plate was further incubated for another 7 days in a humidified incubator at 37° C. and 5% CO2. Cell viability was assessed by luminescence measurement after addition of Cell Titer-Glo reagent (Promega, Madison, Wis.) according to the manufacturer's instructions. Cell viability IC50 values were calculated using XLFit, equation 201. y=A+((B−A)/(1+((x/C)^D))), where A=bottom, B=top, C=IC50, and D=slope. IC50 values are shown in Table B and are presented in ranges, in which “+++”<300 nM, 300 nM≤“++”<3000 nM, and “+”≥3000 nM. Values for percent inhibition at 10 μM are also shown in Table B and are presented in ranges, in which “***”≥67%, 33%: “**”≤67%, and “*”<33%. Effects of the test compounds on the viability of other cell lines such as MDA-MB-436, MDA-MB-231, SUM149PT, HCC1395, and UWB1.289 are determined in an analogous method.

Another assay concerns the target recombinant human PARP1 (Homo sapiens, UniProt P09874). Put plainly: PARP1 fluorescence polarization binding assay. Particulars: GST-tagged PARP1 20 nM, PARP1-FL probe 3 nM. The protocol:
In some embodiments, the biological assay is described in the Examples herein. In some embodiments, the biological assay measures PARP-1 binding by way of fluorescence polarization measurements. In some embodiments, binding of a test compound to recombinant human PARP-1 reduces the amount of binding of a fluorescent probe, and consequently reduces the detected level of fluorescence polarization. In some test compound stock solutions are prepared in a solvent, e.g., DMSO, and are serially diluted into a range of concentrations, e.g., 15 concentrations, 14 concentrations, 13 concentrations, 12 concentrations, 11 concentrations, 10 concentrations, 9 concentrations, 8 concentrations, 7 concentrations, 6 concentrations, or 5 concentrations, by a dilution factor, e.g., a 10-fold dilution factor, a 9-fold dilution factor, an 8-fold dilution factor, a 7-fold dilution factor, a 6-fold dilution factor, a 5-fold dilution factor, a 4-fold dilution factor, a 3-fold dilution factor, or a 2-fold dilution factor. In some embodiments, the serial dilutions, e.g., 100 nL of serial dilution, 90 nL of serial dilution, 80 nL of serial dilution, 70 nL of serial dilution, 60 nL of serial dilution, 50 nL of serial dilution, 30 nL of serial dilution, 20 nL of serial dilution, or 10 nL of serial dilution, are added to a multi-welled plate, e.g., a 1536-well plate, a 384-well plate, or a 96-well plate. In some embodiments, PARP-1, e.g., GST-tagged PARP-1, is diluted in assay buffer, e.g., 50 μL of assay buffer, 40 μL of assay buffer, e.g., 30 μL of assay buffer, 20 μL of assay buffer, 10 μL of assay buffer, or 5 μL of assay buffer, and is added to the plate. In some embodiments, the plate is centrifuged, e.g., at 1000 rpm for 1 min, and incubated, e.g., incubated for 30 minutes at room temperature (RT). In some embodiments, a fluorescent probe, e.g., 10 μL of 6 nM PARP1-FL (TOCRIS, Cat #6461), is diluted in an assay buffer and is added to the plate. In some embodiments, the final concentrations of PARP-1 and fluorescent probe are 20 nM and 3 nM, respectively, in a total volume of 20 μL. In some embodiments, the plate is centrifuged, e.g., at 1000 rpm for 1 minute, and the assay plate is incubated, e.g., for 4 h at RT. In some embodiments, the samples in each well are read using a plate reader, e.g., an Envision instrument using excitation=480 nm, and emission wavelength=FITC FP-P pol 535 nm & FITC FP-S pol 535 nm). In some embodiments, percent inhibition is calculated from mP values using Inhibition (%)=[1−(mPc−mPL)/(mPH−mPL)]×100%, where mPc, mPL, and mPH are the mP values of test compound, Low controls, and High controls, respectively. In some embodiments, binding IC50 values are calculated using XLFit (equation 201: y=A+((B−A)/(1+((x/C)^D))), where A=bottom, B=top, C=IC50, and D=slope) with a floating top and bottom for curves.
Compounds of the present disclosure were tested in a PARP1 fluorescence polarization binding assay at Pharmaron (Beijing, P.R. China). In this biochemical assay, binding of test compound to recombinant human PARP1 reduces the amount of binding of a fluorescent probe, and consequently reduces the detected level of fluorescence polarization. Test compound stock solutions were prepared in DMSO and then serially diluted into 10 concentrations by 3-fold dilution in a 384-well plate using a TECAN EVO200. Alternatively, a single concentration was prepared. 60 nL of each dilution was transferred to the plate using an Echo550 (Labcyte), and then 10 μL 40 nM GST-tagged PARP1 (BPS Bioscience, Cat #80501), diluted in assay buffer (50 mM Tris pH 8.0, 0.001% Triton X-100, 10 mM MgCl2, 150 mM NaCl), was added to the plate. After a centrifugation at 1000 rpm for 1 min, the assay plate was incubated for 30 min at RT. 10 μL 6 nM PARP1-FL (TOCRIS, Cat #6461), diluted using assay buffer, was then added to the plate. The final concentrations of PARP1 and PARP1-FL were 20 nM and 3 nM, respectively, in a total volume of 20 μL. […]

Assay [2] deals with DLD-1 BRCA2(−/−) colorectal adenocarcinoma cells. Put plainly: Cell viability assay (Cell Titer-Glo, 7 days), DLD-1 BRCA2(−/−). The format is cell-based. To be noted: Homo sapiens, 168 h, DLD-1 BRCA2(−/−) cells.
Description: as §1, §2

The mark [3] stands for this setting: percent inhibition at 10 μM, fluorescence polarization, GST-tagged PARP2 20 nM, PARP1-FL probe 3 nM.

The IC50 is the point on the concentration scale where inhibition reaches its midpoint.

Structures can show the parent of a compound that is named as a salt. Where two headings read alike, the source gives them in different places. Some results are limits rather than exact numbers.

Sequence of recombinant human PARP1 (P09874 whole entry): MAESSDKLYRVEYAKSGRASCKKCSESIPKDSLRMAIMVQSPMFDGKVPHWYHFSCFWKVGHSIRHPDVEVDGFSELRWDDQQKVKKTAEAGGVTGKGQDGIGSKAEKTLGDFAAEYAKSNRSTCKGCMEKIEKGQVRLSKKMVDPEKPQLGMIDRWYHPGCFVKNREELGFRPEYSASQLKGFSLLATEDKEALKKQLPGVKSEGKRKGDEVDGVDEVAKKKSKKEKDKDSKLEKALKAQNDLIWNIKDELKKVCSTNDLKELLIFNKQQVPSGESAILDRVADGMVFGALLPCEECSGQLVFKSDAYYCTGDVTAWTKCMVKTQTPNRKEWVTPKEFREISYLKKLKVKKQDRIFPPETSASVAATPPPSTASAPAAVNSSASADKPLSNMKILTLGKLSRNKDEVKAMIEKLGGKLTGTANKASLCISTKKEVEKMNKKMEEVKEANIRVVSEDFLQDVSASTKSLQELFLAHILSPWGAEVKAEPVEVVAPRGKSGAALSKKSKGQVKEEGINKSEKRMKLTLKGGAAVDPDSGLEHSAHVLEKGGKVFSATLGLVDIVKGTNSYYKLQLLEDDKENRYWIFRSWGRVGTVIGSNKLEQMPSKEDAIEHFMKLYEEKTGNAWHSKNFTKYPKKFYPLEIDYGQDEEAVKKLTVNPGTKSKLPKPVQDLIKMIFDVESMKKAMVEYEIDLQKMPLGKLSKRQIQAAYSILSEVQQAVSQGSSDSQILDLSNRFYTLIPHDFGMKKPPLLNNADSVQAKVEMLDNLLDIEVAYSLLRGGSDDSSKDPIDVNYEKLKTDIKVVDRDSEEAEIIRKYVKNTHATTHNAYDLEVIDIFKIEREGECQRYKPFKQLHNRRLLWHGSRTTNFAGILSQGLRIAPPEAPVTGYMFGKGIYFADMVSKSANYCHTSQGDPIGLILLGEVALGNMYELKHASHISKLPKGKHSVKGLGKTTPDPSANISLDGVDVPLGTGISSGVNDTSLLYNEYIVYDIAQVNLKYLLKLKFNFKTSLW
Sequence of recombinant human PARP2 (Q9UGN5 whole entry): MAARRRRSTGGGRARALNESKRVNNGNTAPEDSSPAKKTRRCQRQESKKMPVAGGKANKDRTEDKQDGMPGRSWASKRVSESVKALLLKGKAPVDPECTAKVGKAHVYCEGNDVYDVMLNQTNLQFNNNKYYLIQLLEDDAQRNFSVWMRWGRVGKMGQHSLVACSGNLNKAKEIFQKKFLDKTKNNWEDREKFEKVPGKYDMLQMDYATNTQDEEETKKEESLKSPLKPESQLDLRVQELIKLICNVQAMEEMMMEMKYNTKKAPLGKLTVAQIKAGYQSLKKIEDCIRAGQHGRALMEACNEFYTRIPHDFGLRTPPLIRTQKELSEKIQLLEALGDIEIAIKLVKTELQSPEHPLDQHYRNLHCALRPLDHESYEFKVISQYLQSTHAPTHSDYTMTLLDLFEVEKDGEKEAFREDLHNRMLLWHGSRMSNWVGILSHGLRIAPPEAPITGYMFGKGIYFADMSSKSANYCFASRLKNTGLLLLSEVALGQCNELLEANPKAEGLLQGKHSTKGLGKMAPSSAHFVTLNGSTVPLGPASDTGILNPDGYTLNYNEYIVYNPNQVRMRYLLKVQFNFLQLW

As to `CCNC(=O)Nc1cc(CN2CCN(c3ccc(C(=O)NC)nc3C)CC2)ncn1` [Compound 230, 5-(4-((6-(3-ethylureido)pyrimidin-4-yl)methyl)piperazin-1-yl)-N,6-dimethylpicolinamide formate], the inhibition at 10 µM (on recombinant human PARP2; in assay [1]) was under 33% each time. Also, the IC50 at recombinant human PARP1 is under 100 nM; in assay [2] it was under 300 nM.
With `CCNC(=O)Nc1ncc(CN2CCN(c3ccc(C(=O)NC)nc3C)CC2)s1` [Compound 242, 5-(4-((2-(3-ethylureido)thiazol-5-yl)methyl)piperazin-1-yl)-N,6-dimethylpicolinamide trifluoroacetate], the inhibition at 10 µM (on recombinant human PARP2; in assay [1]) was under 33% in each case. For the same compound, the IC50 at recombinant human PARP1 is under 100 nM; in assay [2] it was 300 to 3000 nM.
`CCNC(=O)Nc1ncc(CN2CCN(c3ccc(C(=O)NC)nc3C)CC2)o1` [Compound 246, 5-(4-((2-(3-ethylureido)oxazol-5-yl)methyl)piperazin-1-yl)-N,6-dimethylpicolinamide]: the inhibition at 10 µM (at recombinant human PARP2 (setting [3]); in assay [1]) was under 33% in each case. Also, the IC50 on recombinant human PARP1 was under 100 nM; in assay [2] it was under 300 nM.
In the case of `CCNC(=O)Nc1cc(CN2CCN(c3cnc4c(NC)nccc4c3)CC2)ccn1` [Compound 257, 1-ethyl-3-(4-((4-(8-(methylamino)-1,7-naphthyridin-3-yl)piperazin-1-yl)methyl)pyridin-2-yl)urea], the inhibition at 10 µM was 33 to 67% at recombinant human PARP2 (setting [3]) and under 33% in assay [1]. The IC50 on recombinant human PARP1 is under 100 nM; in assay [2], 300 to 3000 nM.
For `CNC(=O)c1ccc(N2CCN(Cc3ccnc(NC(=O)NC(C)C)c3)CC2)c(C)n1` [Compound 259, 5-(4-((2-(3-isopropylureido)pyridin-4-yl)methyl)piperazin-1-yl)-N,6-dimethylpicolinamide] the same measures were under 33%, under 33%, under 100 nM and 300 to 3000 nM.
Turning to `CCNC(=O)Nc1nccc(CN2CCN(c3ccc(C(=O)NC)nc3C)CC2)c1C` [Compound 260, 5-(4-((2-(3-ethylureido)-3-methylpyridin-4-yl)methyl)piperazin-1-yl)-N,6-dimethylpicolinamide hemiformate], the inhibition at 10 µM (on recombinant human PARP2; in assay [1]) was under 33% in each case. Besides, the half-inhibitory concentration (IC50) was under 100 nM at recombinant human PARP1 and 300 to 3000 nM in assay [2].
On to `CNC(=O)c1ccc(N2CCN(Cc3ccnc(NC(=O)NCCF)c3)CC2)c(C)n1` [Compound 261, 5-(4-((2-(3-(2-fluoroethyl)ureido)pyridin-4-yl)methyl)piperazin-1-yl)-N,6-dimethylpicolinamide], for which the inhibition at 10 µM (on recombinant human PARP2 (setting [3]); in assay [1]) was under 33% in each case. Moreover, the IC50 is under 100 nM at recombinant human PARP1 and under 300 nM in assay [2].
Consider `CNC(=O)c1ccc(N2CCN(Cc3ccnc(NC(=O)NCC(F)F)c3)CC2)c(C)n1` [Compound 262, 5-(4-((2-(3-(2,2-difluoroethyl)ureido)pyridin-4-yl)methyl)piperazin-1-yl)-N,6-dimethylpicolinamide], for which the inhibition at 10 µM (at recombinant human PARP2 (setting [3]); in assay [1]) was under 33% each time. The 50% inhibitory concentration (IC50) is under 100 nM at recombinant human PARP1 and under 300 nM in assay [2].
`CCNC(=O)Nc1cc(CN2CCN(c3ccc(C#N)cn3)CC2)ccn1` [Compound 263, 1-(4-((4-(5-cyanopyridin-2-yl)piperazin-1-yl)methyl)pyridin-2-yl)-3-ethylurea]: the inhibition at 10 µM (on recombinant human PARP2 (setting [3]); in assay [1]) was under 33% each time. The 50% inhibitory concentration (IC50) was under 100 nM on recombinant human PARP1 and under 300 nM in assay [2].
On to `CCNC(=O)Nc1cc(CN2CCN3c4ccc(C(=O)NC)nc4OC[C@H]3C2)ccn1` [Compound 264, (R)-3-((2-(3-ethylureido)pyridin-4-yl)methyl)-N-methyl-1,2,3,4,4a,5-hexahydropyrazino[1,2-d]pyrido[2,3-b][1,4]oxazine-8-carboxamide], for which the values for the inhibition at 10 µM (at recombinant human PARP2 (setting [3]); in assay [1]) were 33 to 67% and under 33%, respectively. In addition, the IC50 is under 100 nM on recombinant human PARP1 and under 300 nM in assay [2].
Consider `CCNC(=O)Nc1cc(CN2CCN(c3ccc(C#N)nc3)CC2)ccn1` [Compound 267, 1-(4-((4-(6-cyanopyridin-3-yl)piperazin-1-yl)methyl)pyridin-2-yl)-3-ethylurea formate], for which the inhibition at 10 µM (on recombinant human PARP2; in assay [1]) was under 33% in each case. Moreover, the IC50 was under 100 nM at recombinant human PARP1 and under 300 nM in assay [2].
